The target in this assay is human CCR6 (Homo sapiens (Human), UniProt P51684). Kind of assay: Calcium activity assay on the FLIPR Tetra in HEK-Gqi5 cells stably expressing human CCR6 (MIP3α as positive control agonist). The class given is cell-based. The method, then: HEK-Gqi5 cells stably expressing human CCR6 were cultured in DMEM high glucose, 10% FBS, 1% PSA, 400 ug/ml geneticin and 50 ug/ml hygromycin. Appropriate positive control chemokine (MIP3α) was used as the positive control agonist for screening compound-induced calcium activity assayed on the FLIPR^Tetra. The drug plates were prepared in 384-well microplates using the EP3 and the MultiPROBE robotic liquid handling systems. Compounds disclosed herein were tested for CCR6 activity.

Structures are written as SMILES.

Usually IC50 stands for the concentration that gives 50% inhibition.

Sequence of human CCR6 (P51684 whole entry): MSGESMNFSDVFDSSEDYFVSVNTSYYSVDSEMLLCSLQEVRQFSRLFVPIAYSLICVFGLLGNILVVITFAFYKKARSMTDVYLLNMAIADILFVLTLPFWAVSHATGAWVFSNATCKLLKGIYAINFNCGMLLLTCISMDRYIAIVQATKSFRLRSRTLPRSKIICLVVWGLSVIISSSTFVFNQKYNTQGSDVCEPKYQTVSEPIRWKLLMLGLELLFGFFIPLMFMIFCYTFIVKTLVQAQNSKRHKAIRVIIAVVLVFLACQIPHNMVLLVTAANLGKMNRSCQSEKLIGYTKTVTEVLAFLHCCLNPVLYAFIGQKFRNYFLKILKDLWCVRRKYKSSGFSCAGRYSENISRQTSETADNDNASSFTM

On to `CCC(C)(Nc1c(Nc2ccc(Cl)c(C(=O)N(C)C)c2O)c(=O)c1=O)c1ccccc1` (stereo not shown) [Compound 72, 6-chloro-3-((3,4-dioxo-2-((2-phenylbutan-2-yl)amino)cyclobut-1-en-1-yl)amino)-2-hydroxy-N,N-dimethylbenzamide], for which the “CCR6 % Antagonism” value is listed as 95% and the IC50 was 46 nM.
On the same counts, the results for `CN1CCN(S(=O)(=O)c2c(Cl)ccc(Nc3c(NC4c5ccoc5CCC4(C)C)c(=O)c3=O)c2O)CC1` (stereo not shown) [Compound 49, 3-((4-chloro-2-hydroxy-3-((4-methylpiperazin-1-yl)sulfonyl)phenyl)amino)-4-((5,5-dimethyl-4,5,6,7-tetrahydrobenzofuran-4-yl)amino)cyclobut-3-ene-1,2-dione] are 98% and 31 nM.

These data come from patent publication US11208377B2, “3,4-disubstituted 3-cyclobutene-1,2-diones and use thereof” (ALLERGAN, INC., priority 2017, dated 2021).
